In ChEMBL document CHEMBL4507319 (2021):

Legend:
[1] = target: Tyrosine-protein kinase BTK (Homo sapiens) (UniProt Q06187); experiment: BTK(h) Eurofins kinase panel; conditions: Compound concentration 1.0 uM
[2] = target: Dual specificity tyrosine-phosphorylation-regulated kinase 1A (Homo sapiens) (UniProt Q13627); experiment: DYRK1A(h) Eurofins kinase panel; conditions: Compound concentration 1.0 uM
[3] = target: Tyrosine-protein kinase HCK (Homo sapiens) (UniProt P08631); experiment: Hck(h) Eurofins kinase panel; conditions: Compound concentration 1.0 uM
[4] = target: MAP/microtubule affinity-regulating kinase 3 (Homo sapiens) (UniProt P27448); experiment: MARK3(h) Eurofins kinase panel; conditions: Compound concentration 1.0 uM
[5] = target: T1, cGMP-dependent protein kinase 1 (Homo sapiens) (UniProt Q13976); experiment: PKG1beta (h) Eurofins kinase panel; conditions: Compound concentration 1.0 uM
T1 sequence (whole entry): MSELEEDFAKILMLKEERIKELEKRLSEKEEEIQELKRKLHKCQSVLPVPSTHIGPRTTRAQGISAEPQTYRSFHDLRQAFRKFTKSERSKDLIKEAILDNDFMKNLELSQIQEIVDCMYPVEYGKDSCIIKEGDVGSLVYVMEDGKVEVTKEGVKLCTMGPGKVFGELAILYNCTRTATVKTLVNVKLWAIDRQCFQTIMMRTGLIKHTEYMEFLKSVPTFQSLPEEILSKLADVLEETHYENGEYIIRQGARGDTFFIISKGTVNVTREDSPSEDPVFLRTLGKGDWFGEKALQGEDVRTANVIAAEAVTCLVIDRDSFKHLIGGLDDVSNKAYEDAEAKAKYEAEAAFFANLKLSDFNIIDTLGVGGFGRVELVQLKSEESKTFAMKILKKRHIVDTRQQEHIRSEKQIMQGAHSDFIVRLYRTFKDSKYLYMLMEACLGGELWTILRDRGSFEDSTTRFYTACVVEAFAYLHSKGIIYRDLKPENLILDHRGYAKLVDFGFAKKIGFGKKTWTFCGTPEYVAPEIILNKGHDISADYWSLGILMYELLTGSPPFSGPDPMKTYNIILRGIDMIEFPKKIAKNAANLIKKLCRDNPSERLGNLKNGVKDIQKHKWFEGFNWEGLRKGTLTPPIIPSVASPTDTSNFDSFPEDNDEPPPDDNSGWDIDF

[6] = target: T2, Serine/threonine-protein kinase DCLK3 (Homo sapiens) (UniProt Q9C098); experiment: DCAMKL3(h) Eurofins kinase panel; conditions: Compound concentration 1.0 uM
T2 sequence (whole entry): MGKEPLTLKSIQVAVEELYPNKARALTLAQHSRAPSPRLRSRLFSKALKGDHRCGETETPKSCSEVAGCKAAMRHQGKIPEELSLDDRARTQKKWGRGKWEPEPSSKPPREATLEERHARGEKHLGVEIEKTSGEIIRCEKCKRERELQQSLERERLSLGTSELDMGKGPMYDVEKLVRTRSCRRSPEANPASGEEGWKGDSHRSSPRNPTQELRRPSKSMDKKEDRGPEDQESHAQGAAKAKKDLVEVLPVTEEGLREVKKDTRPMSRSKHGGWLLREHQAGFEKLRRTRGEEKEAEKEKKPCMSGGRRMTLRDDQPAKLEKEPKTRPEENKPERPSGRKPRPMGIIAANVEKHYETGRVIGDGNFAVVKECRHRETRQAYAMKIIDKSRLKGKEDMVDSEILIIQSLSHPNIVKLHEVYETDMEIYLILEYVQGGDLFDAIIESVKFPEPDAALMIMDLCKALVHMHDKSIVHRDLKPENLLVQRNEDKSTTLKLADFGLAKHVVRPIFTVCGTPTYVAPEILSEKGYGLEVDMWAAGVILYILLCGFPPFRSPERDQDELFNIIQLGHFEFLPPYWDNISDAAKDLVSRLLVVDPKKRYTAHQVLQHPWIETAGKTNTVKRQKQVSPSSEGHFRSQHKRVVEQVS

[7] = target: Tyrosine-protein kinase Yes (Homo sapiens) (UniProt P07947); experiment: Yes(h) Eurofins kinase panel; conditions: Compound concentration 1.0 uM
[8] = target: Homeodomain-interacting protein kinase 3 (Homo sapiens) (UniProt Q9H422); experiment: HIPK3(h) Eurofins kinase panel; conditions: Compound concentration 1.0 uM
[9] = target: Calcium/calmodulin-dependent protein kinase kinase 1 (Homo sapiens) (UniProt Q8N5S9); experiment: CaMKK1(h) Eurofins kinase panel; conditions: Compound concentration 1.0 uM
[10] = target: Interleukin-1 receptor-associated kinase 1 (Homo sapiens) (UniProt P51617); experiment: IRAK1(h) Eurofins kinase panel; conditions: Compound concentration 1.0 uM
MDA-MB-453 = experiment: MDA-MB- 453 cell line Proliferation assay; type: functional, Homo sapiens; conditions: time 3 day
[11] = target: Mitogen-activated protein kinase 3 (Homo sapiens) (UniProt P27361); experiment: MAPK1(h) Eurofins kinase panel; conditions: Compound concentration 1.0 uM
[12] = target: Insulin-like growth factor 1 receptor (Homo sapiens) (UniProt P08069); experiment: IGF-1R(h), activated Eurofins kinase panel; conditions: Compound concentration 1.0 uM
[13] = target: Cyclin-dependent kinase 5/CDK5 activator 1 (Homo sapiens) (UniProt Q00535+Q15078); experiment: CDK5/p35(h) Eurofins kinase panel; type: protein-complex assay; conditions: Compound concentration 1.0 uM
[14] = target: T3, Dual specificity protein kinase TTK (Homo sapiens) (UniProt P33981); experiment: TTK(h) Eurofins kinase panel; conditions: Compound concentration 1.0 uM
T3 sequence (whole entry): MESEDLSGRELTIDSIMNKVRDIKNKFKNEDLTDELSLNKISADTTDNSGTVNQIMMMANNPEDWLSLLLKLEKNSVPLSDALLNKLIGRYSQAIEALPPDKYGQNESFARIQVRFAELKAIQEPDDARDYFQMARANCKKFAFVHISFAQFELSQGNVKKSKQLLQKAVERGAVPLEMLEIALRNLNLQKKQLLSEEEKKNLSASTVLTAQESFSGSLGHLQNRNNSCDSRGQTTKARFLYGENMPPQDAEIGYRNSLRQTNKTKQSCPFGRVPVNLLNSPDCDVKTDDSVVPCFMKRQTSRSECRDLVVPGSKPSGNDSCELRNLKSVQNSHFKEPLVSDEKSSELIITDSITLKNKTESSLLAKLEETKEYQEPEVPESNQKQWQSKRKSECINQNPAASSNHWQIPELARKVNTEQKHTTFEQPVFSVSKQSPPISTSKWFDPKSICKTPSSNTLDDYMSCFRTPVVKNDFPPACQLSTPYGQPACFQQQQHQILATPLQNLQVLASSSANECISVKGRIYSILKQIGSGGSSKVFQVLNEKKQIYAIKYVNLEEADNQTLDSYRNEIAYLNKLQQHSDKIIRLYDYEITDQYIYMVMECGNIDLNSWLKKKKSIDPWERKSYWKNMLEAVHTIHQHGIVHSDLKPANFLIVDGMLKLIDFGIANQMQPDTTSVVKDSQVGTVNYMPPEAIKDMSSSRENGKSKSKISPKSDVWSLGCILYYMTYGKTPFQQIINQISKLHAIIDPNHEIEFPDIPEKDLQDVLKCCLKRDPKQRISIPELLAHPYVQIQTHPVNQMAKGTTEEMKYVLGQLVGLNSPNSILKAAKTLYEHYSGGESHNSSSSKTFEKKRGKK

[15] = target: Cyclin-dependent kinase 1/cyclin B (Homo sapiens) (UniProt P06493+P14635+Q8WWL7+O95067); experiment: CDK1/cyclinB(h) Eurofins kinase panel; type: protein-complex assay; conditions: Compound concentration 1.0 uM
[16] = target: Casein kinase I isoform gamma-3 (Homo sapiens) (UniProt Q9Y6M4); experiment: CK1gamma3(h) Eurofins kinase panel; conditions: Compound concentration 1.0 uM

Chain of Homeodomain-interacting protein kinase 3 (Homo sapiens) (Q9H422 whole entry, looked up): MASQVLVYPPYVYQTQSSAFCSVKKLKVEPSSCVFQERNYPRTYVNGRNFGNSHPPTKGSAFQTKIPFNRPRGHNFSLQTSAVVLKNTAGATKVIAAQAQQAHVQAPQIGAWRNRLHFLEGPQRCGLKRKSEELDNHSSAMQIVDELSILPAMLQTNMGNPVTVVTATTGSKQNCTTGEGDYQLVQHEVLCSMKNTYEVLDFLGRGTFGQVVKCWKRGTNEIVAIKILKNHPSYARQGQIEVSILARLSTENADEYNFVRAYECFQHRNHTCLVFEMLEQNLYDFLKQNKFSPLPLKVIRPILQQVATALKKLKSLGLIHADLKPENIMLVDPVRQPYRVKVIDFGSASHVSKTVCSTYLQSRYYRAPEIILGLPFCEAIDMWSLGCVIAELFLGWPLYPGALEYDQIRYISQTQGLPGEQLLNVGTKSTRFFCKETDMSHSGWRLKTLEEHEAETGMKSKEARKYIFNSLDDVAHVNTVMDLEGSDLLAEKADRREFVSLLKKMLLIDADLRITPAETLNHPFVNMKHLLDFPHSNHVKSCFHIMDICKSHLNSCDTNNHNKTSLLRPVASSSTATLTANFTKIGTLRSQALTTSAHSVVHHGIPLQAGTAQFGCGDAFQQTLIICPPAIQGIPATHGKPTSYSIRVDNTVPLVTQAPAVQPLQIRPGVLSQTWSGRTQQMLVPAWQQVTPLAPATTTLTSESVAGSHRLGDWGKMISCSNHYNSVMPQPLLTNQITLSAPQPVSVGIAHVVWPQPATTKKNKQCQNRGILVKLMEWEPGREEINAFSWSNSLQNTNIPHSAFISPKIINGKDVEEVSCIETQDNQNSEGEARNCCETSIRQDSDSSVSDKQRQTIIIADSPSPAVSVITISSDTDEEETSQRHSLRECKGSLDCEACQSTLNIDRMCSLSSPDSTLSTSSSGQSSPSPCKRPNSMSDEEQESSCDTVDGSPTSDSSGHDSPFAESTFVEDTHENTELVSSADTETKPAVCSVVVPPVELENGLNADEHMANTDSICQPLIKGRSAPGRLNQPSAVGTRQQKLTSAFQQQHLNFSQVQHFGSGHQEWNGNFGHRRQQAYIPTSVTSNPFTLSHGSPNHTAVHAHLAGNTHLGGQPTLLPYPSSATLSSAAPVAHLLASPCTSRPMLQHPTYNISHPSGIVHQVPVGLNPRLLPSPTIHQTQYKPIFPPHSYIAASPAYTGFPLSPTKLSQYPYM
Chain of Mitogen-activated protein kinase 3 (Homo sapiens) (P27361 whole entry, looked up): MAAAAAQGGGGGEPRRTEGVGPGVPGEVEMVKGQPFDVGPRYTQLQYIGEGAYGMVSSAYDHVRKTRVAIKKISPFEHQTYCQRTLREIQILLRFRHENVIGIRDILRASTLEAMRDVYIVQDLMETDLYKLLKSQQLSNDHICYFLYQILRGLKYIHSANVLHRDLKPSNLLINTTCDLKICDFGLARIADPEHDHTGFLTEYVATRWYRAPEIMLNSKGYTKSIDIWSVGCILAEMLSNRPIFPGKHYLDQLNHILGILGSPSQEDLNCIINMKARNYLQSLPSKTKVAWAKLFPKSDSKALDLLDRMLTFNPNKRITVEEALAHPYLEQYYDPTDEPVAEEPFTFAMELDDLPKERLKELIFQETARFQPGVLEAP
Chain of Tyrosine-protein kinase HCK (Homo sapiens) (P08631 2-526 limits assumed): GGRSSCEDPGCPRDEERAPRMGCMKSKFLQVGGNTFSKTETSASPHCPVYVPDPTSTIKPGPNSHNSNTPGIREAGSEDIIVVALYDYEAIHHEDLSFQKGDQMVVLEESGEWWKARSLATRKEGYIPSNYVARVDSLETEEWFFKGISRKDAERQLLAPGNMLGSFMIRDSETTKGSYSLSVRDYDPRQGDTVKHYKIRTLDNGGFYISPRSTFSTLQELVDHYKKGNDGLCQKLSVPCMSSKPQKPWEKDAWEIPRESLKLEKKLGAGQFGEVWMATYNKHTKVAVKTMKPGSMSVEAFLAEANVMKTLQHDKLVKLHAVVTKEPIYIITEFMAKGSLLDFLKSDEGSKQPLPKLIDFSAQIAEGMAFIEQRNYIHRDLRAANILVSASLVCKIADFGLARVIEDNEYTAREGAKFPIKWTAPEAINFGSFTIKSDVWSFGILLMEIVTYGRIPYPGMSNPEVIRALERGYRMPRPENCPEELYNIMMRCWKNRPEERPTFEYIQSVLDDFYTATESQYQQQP
Chain of Tyrosine-protein kinase BTK (Homo sapiens) (Q06187 whole entry): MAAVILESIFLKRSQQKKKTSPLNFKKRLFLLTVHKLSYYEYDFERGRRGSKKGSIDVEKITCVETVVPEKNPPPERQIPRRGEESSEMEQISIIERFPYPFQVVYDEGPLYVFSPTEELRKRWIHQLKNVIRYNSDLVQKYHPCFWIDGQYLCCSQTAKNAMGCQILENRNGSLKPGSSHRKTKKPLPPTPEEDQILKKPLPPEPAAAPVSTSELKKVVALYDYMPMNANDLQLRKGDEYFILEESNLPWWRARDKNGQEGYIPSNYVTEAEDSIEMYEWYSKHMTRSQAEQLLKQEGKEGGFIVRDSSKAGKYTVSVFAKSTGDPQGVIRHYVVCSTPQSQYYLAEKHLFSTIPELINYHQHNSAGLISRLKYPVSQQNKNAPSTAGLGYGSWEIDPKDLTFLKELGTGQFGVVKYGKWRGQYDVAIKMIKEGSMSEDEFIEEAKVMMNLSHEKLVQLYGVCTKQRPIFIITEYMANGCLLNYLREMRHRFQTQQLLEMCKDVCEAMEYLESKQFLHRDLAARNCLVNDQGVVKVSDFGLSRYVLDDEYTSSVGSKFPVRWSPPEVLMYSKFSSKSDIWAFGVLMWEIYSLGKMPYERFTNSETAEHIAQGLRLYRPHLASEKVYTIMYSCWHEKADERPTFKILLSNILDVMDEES
Chain of Cyclin-dependent kinase 5/CDK5 activator 1 (Homo sapiens) (Q00535 whole entry): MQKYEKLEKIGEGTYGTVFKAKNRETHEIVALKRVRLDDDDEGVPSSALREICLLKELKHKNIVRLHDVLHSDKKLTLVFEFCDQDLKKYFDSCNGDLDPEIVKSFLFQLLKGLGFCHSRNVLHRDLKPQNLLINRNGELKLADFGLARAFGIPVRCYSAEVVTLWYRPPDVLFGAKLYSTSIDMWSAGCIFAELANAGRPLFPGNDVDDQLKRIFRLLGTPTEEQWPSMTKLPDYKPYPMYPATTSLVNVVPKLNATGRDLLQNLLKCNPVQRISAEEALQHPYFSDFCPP
Chain of Cyclin-dependent kinase 5/CDK5 activator 1 (Homo sapiens) (Q15078 99-307 partner limits assumed): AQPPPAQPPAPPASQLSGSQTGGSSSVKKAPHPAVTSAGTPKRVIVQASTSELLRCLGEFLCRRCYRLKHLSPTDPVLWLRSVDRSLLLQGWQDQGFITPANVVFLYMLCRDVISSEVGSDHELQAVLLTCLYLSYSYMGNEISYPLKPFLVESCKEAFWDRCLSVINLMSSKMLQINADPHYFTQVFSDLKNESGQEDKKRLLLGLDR
Chain of MAP/microtubule affinity-regulating kinase 3 (Homo sapiens) (P27448 whole entry, looked up): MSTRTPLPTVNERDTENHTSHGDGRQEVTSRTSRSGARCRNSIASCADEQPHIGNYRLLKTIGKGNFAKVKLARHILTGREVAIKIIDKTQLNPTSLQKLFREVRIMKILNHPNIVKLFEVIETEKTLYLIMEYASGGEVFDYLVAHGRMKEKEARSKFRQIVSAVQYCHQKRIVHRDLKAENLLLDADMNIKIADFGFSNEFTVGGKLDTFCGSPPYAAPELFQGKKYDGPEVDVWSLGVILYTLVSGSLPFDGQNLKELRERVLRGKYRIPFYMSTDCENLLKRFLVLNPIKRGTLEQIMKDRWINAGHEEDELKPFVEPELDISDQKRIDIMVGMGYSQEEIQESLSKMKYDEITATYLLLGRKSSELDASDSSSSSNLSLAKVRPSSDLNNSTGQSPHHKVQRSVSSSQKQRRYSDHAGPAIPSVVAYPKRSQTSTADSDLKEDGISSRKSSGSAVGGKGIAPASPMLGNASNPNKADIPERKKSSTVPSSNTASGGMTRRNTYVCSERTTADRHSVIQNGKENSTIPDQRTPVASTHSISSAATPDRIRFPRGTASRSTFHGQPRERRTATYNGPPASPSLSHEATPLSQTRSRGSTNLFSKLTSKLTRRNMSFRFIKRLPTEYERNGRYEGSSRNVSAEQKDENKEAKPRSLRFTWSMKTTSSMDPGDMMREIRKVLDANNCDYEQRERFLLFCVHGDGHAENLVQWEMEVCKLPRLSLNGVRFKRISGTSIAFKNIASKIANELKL
Chain of Interleukin-1 receptor-associated kinase 1 (Homo sapiens) (P51617 whole entry, looked up): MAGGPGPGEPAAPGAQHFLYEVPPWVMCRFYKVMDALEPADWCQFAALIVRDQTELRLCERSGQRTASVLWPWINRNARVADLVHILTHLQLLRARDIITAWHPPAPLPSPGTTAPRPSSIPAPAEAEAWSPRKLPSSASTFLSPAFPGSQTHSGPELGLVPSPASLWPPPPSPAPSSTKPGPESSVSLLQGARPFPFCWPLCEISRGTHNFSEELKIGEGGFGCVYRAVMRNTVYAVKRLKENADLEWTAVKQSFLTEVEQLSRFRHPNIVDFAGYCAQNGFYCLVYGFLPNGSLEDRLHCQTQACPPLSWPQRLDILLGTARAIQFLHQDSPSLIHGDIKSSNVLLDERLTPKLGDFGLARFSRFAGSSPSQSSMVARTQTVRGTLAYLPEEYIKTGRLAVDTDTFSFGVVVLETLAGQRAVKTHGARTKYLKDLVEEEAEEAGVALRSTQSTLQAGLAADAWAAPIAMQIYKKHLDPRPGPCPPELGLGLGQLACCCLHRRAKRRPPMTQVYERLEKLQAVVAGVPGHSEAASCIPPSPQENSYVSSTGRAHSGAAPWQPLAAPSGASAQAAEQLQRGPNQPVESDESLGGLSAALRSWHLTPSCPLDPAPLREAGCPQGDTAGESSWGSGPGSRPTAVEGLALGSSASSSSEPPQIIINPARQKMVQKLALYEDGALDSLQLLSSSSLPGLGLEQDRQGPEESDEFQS

Compound: CCc1ccccc1C(=O)Nc1n[nH]c2c(C)c(F)c(C3C(C#N)=C(C)N(C)C(C)=C3C#N)cc12 [BAY-3827]
- % residual kinase activity [1]: 96%
- % residual kinase activity [2]: 107%
- % residual kinase activity [3]: 88%
- % residual kinase activity [4]: 70%
- % residual kinase activity [5]: 78%
- % residual kinase activity [6]: 100%
- % residual kinase activity [7]: 90%
- % residual kinase activity [8]: 100%
- % residual kinase activity [9]: 95%
- % residual kinase activity [10]: 99%
- Cell Proliferation IC50 (MDA-MB-453): 14.6 µM
- % residual kinase activity [11]: 95%
- % residual kinase activity [12]: 121%
- % residual kinase activity [13]: 99%
- % residual kinase activity [14]: 90%
- % residual kinase activity [15]: 98%
- % residual kinase activity [16]: 105%
